The values that follow come from patent publication US20120270935A1, “FORMULATIONS” (priority 2009, published 2012).

Test [1] has as its system P. acnes NCTC 737. In words: Minimum inhibitory concentration (MIC) assay, broth microtitre. The class given is cell-based, Propionibacterium acnes. The note with it: compound in DMSO, triplicate. The procedure: (§1) The first test micro-organism used was Propionibacterium acnes NCTC 737. This is a propionibacterial strain and is the type strain of the […]; it is fully susceptible to antibiotics.
(§2) The propionibacteria were cultured and maintained on Wilkins-Chalgren Anaerobe Medium (agar and broth) at pH 6.0; all cultures were incubated anaerobically at 37° C. for 72 hours.
This is a standard international method for quantitatively assessing the antimicrobial activity of a compound in a liquid medium. The method used a sterile 96-well microtitre plate, capable of holding about 200 μl of liquid per well. The wells contained liquid culture medium and ranges of decreasing concentrations of the relevant test compound in doubling dilutions (eg 1000, 500, 250, 125 . . . μg/ml, etc. down to 0.49 μg/ml). The culture medium was as described above.
The wells were inoculated with a liquid suspension of freshly grown micro-organism and incubated under the conditions described above. After incubation, the microtitre plate was examined visually (with the aid of a light box) for cloudiness in each well, which would indicate microbial growth. The MIC value was recorded as the lowest concentration of test compound required to inhibit microbial growth, ie the lowest concentration for which the liquid in the well remained clear.
The assays included both negative (culture medium with no micro-organisms) and positive (culture medium plus diluting solvent plus micro-organism) controls.
DDA assays, as described above, were carried out using as the test formulation the gel prepared in Example 2B above. Also tested was the Example 2B gel minus the Klucel™ thickener, which was also subjected to MIC and MBC assays. For the DDAs, which were performed in triplicate, 100 μl of the relevant formulation was loaded onto each disc, and zones of inhibition were recorded after 3 days' anaerobic incubation at 37° C. The MIC and MBC tests were performed in duplicate and the results recorded after 3 days and 7 days respectively, post-subculture onto drug-free medium. […]

In test [2] the test system is P. acnes NCTC 737. In words: Minimum bactericidal concentration (MBC) assay. Conditions: compound in DMSO, triplicate. The class given is cell-based, Propionibacterium acnes. The procedure: as §1, §2
This assay, normally carried out after an MIC assay, determines the minimum concentration of a compound that is lethal to the micro-organism being tested.
These samples were then individually sub-cultured on antibiotic-free agar medium, under the incubation conditions described above. Following incubation they were examined visually for microbial growth.
DDA assays, as described above, were carried out using as the test formulation the gel prepared in Example 2B above. Also tested was the Example 2B gel minus the Klucel™ thickener, which was also subjected to MIC and MBC assays. For the DDAs, which were performed in triplicate, 100 μl of the relevant formulation was loaded onto each disc, and zones of inhibition were recorded after 3 days' anaerobic incubation at 37° C. The MIC and MBC tests were performed in duplicate and the results recorded after 3 days and 7 days respectively, post-subculture onto drug-free medium.
The compounds copper (II) usnate (Just for Today Ltd), sodium usnate (Yick-Vic Chemicals) and usnic acid (Sigma-Aldrich) were tested against P. acnes NCTC 737, using MIC, MBC and DDA assays as described above. For copper usnate and usnic acid, supplemented DDA assays were also carried out. DMSO was used as the solvent for all three test compounds. For the DDAs, 200 μg of the relevant test compound was loaded onto each disc. The MIC and MBC assays were conducted in triplicate, as were the DDAs for copper usnate.

Test [3] relates to S. aureus ATCC 29213. Briefly: MIC assay. Conditions: Mueller-Hinton broth pH 7.0. The class given is cell-based, Staphylococcus aureus. From the text:
(§3) (a) staphylococci. The Staphylococcus aureus strain used was ATCC 29213. S. aureus and other staphylococci are common causes of a wide range of skin, skin structure and wound infections; S. aureus is also known to exacerbate eczema. The ATCC 29213 strain is known to be susceptible to beta-lactam antibiotics such as methicillin. The Staphylococcus epidermidis strain used was NCTC 11047. Staph. epidermidis forms part of the resident flora of skin and is an opportunistic pathogen which can cause biofilms to grow for instance on plastic surgical implants such as catheters. Unless otherwise stated, the staphylococci were cultured and maintained on Mueller-Hinton Medium (agar and broth) at pH 7.2; cultures were incubated aerobically at 37° C. for 19-20 hours, at pH 7 (±0.2). (b) C. striatum NCTC 764. Corynebacterium striatum is closely related to organisms (aerobic diphtheroids of the genus Corynebacterium) that cause body odour. It was cultured and maintained on Mueller-Hinton medium (agar and broth). All cultures were incubated aerobically at 37° C. for 72 hours, at pH 7 (±0.2). (c) streptococci. The strains tested were S. mutans ATCC 25175 and S. pyogenes ATCC 12344. S. mutans is a Gram-positive, microaerophilic bacterium which plays a significant role in dental caries and in infective endocarditis. […]
This is a standard international method for quantitatively assessing the antimicrobial activity of a compound in a liquid medium. […]
The wells were inoculated with a liquid suspension of freshly grown micro-organism and incubated under the conditions described above. […] The MIC value was recorded as the lowest concentration of test compound required to inhibit microbial growth, ie the lowest concentration for which the liquid in the well remained clear. […]
(§4) Example 8 was repeated (except for the supplemented DDA assays), using S. aureus ATCC 29213 as the test organism. […] In the DDA assays, 200 μg is of each compound was loaded onto each disc: the culture medium was Mueller-Hinton agar at pH 7.0, and results were recorded after overnight incubation at 37° C. in air. […]

The subject of test [4] is S. aureus ATCC 29213. Briefly: Disc diffusion assay (DDA). The class given is cell-based, Staphylococcus aureus. The note with it: 200 μg per disc, Mueller-Hinton agar pH 7.0, overnight at 37° C. in air.
Excerpt: as §3, with “endocarditis. Streptococcus pyogenes is associated with skin, soft tissue, burn and wound infections.” for “endocarditis.”
A sterile paper disc was impregnated with a sample of the test compound in a suitable solvent and 30 minutes allowed for the solvents to evaporate (where possible). […] The diameter of this zone of “inhibition” was measured using a ProtoCOL™ automated zone sizer (Synbiosis, Cambridge, UK). […]
as §4

In brackets after ≈: the same amount, converted by molar mass. Like-named read-outs stand apart in the source and are kept apart here.

In general, MIC refers to the lowest concentration that inhibits growth of the organism. In general, MBC refers to the smallest concentration meeting the test's criterion for killing. Take `CC(=O)c1c([O-])c(C)c([O-])c2c1OC1=CC(=O)C(C(C)=O)C(=O)C12C.[Cu+2]` (centres unmarked) [Copper usnate, copper (II) usnate]: the MIC against P. acnes NCTC 737 [1] worked out at 0.49 µg/mL; in the test with S. aureus ATCC 29213 [3], 7.8 µg/mL. The same molecule returned an MBC with P. acnes NCTC 737 [2] of 1.95 µg/mL. In the test on S. aureus ATCC 29213 [4], this molecule yielded a DDA zone diameter of 14.8 ± 0.3 mm.
Regarding `CC(=O)c1c(O)c(C)c(O)c2c1OC1=CC(=O)C(C(C)=O)C(=O)C12C` (centres unmarked) [Usnic acid, 2,6-diacetyl-7,9-dihydroxy-8,9b-dimethyl-1,3(2H,9bh)-dibenzofurandione], the MIC with P. acnes NCTC 737 [1] (Cutibacterium acnes, NCTC737, read-out: MIC) came to 0.49 µg/mL (≈ 1.42 µM); in the test on S. aureus ATCC 29213 [3] (Staphylococcus aureus, ATCC29213, read-out: MIC), 31.2 µg/mL (≈ 90.8 µM). Also, in the test with P. acnes NCTC 737 [2] (Cutibacterium acnes, NCTC737, read-out: MBC), the MBC is 31.2 µg/mL (≈ 90.8 µM). Besides, the zone of inhibition at 200 µg/disc with S. aureus ATCC 29213 [4] (Staphylococcus aureus, ATCC29213, read-out: DDA zone diameter) worked out at 13.6 ± 0.3 mm.
